According to US12606552B2, “Bifunctional compound, preparation method therefor, and use thereof” (SUZHOU KINTOR PHARMACEUTICALS, INC., priority 2020, dated 2026):

Molecular target: T1, AR (Homo sapiens, UniProt P10275, T878A)
T1 sequence (P10275 1-920 T878A): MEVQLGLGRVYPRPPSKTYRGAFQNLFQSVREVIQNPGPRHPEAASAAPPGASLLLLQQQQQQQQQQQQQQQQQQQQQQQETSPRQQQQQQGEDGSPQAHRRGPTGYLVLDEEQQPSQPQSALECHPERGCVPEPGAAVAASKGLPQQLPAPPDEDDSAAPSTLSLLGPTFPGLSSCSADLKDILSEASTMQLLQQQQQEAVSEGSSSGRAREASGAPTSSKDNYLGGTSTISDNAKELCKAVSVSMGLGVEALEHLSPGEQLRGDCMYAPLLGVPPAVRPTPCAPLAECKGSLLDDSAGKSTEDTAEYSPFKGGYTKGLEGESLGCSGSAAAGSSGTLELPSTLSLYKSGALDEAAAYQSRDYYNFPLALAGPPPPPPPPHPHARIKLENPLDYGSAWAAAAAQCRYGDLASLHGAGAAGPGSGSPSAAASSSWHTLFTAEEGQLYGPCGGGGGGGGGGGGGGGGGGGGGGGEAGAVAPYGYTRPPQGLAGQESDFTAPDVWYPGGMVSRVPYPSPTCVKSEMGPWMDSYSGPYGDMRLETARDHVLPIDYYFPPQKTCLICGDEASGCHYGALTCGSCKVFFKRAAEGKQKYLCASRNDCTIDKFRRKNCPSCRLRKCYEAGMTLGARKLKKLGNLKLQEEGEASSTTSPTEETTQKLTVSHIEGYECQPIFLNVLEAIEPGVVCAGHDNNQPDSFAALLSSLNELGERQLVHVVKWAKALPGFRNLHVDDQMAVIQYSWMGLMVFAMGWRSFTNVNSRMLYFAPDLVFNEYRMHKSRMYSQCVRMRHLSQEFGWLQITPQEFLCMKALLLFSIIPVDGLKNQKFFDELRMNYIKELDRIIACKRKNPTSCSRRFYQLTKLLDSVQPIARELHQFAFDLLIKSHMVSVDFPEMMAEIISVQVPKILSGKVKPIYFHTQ
Test: Effects of compounds on AR expression in LNCaP cells (ELISA, DC50)
Assay type: cell-based
Set-up: Measurement of the Effects of Drugs on the Expression of AR in Cells by ELISA Method; endogenous in cells; host or cells: LNCaP
Details: 24 hours of drug treatment, AR by ELISA
Description: Activity Assay Example 1: Effects of Compounds on AR Expression in LNCaP Cells
1. Cell Line and Cell Culture
Human prostate cancer cells LNCaP (Shanghai Chinese Academy of Sciences Cell Bank). LNCaP was cultured in 1640 medium containing 10% fetal bovine serum. The cells grow in clusters, with weak adhesion to the bottom of the culture flask, slow proliferation, with a multiplication time of 72 h. The cells are closely adhered to each other and need to be digested with 0.05% trypsin containing 0.025% EDTA. The cells were passaged every 3 days. The cells were cultured at 37° C. and 5% CO2 in a humidified incubator
2. Cell plating: The supernatant was discarded, and the Lncap cells in the logarithmic growth phase were taken, washed with PBS once, and added with appropriate 0.05% trypsin digestion solution to be fully digested into single cell suspension, and centrifuged, resuspended and counted to make the number of cells about 15,000 per well, then inoculated in a 96-well plate, placed at 37° C., 5% CO2 and cultured overnight for 24 h.
3. Preparation and Addition of Compound Solutions
About 2 mg of each compound was weighed and dissolved in DMSO to make the stock solution with a concentration of 10 mmol/L. Dilution process (final concentration dilution: 2, 0.667, 0.222, 0.074, 0.0245, 0.008, 0.003, 0.001, 0.0003, 0.0001 μmol/L): 10 centrifuge tubes with a volume of 1.5 mL were taken and numbered 1, 2, 3, 4, 5, 6, 7, 8, 9, and 10, 80 μL DMSO was added to tube No. 1, and 60 μL DMSO was added to tubes No. 2 to No. 10, 20 μL of the stock solution was pipetted to tube No. 1 and mixed well; 30 μL was pipetted from tube No. 1 into tube No. 2 and mixed well. 30 μL was pipetted from tube No. 2 into tube No. 3 and mixed well, and so forth, to obtain samples No. 4-10, and to obtain working solutions of compounds of different concentrations respectively. 2 μL was pipetted from the above-mentioned tubes No. 1-10 into each corresponding sterile deep-well plates, added with 198 μL of culture medium, and mixed well. 11 ul was added to each well of the 96-well cell plate cultured overnight to obtain the corresponding desired concentrations (2, 0.667, 0.222, 0.074, 0.0245, 0.008, 0.003, 0.001, 0.0003, 0.0001 μmol/L).
4. Measurement of the Effects of Drugs on the Expression of AR in Cells by ELISA Method
After 24 hours of drug treatment, the supernatant was removed, and 200 μL of PBS was added to wash cells, and then the supernatant was removed, and 100 μL of cell lysate was added to lyse cells on ice for 20 min, then the cell lysate was centrifuged at 4000 rpm for 20 min at 4° C. and the supernatant was taken for later use. The measurement steps of the supernatant were according to the ELISA kit instructions:
4.1 The slats required for the test were taken out from the sealed bag that has been equilibrated to room temperature. Please put the unused slats and desiccant back into the aluminum foil bag and compress the self-sealing strip, seal the bag, and store at 4° C.
4.2 Standards and sample diluents were added to blank wells, and different concentrations of standards (10 ul/well) and sample diluents (90 ul/well) were added to the remaining corresponding wells, and the reaction wells were sealed with sealing tape, and refrigerated at 4° C. overnight.
4.3 Primary antibody was diluted with dilution buffer to the corresponding concentration and added to each well in 100 ul/well. The reaction wells were sealed with sealing tape and incubated at 37° C. for 60 min.
4.4 Secondary antibody was diluted with dilution buffer to the corresponding concentration and added to each well in 100 ul/well. The reaction wells were sealed with sealing tape and incubated at 37° C. for 30 min.
4.5 The reaction wells were added with 100 ul/well of substrate (TMB) and incubated at room temperature for 30 min.
4.6 The reaction wells were added with 100 ul/well of stop solution, mixed well and then the OD450 value was measured with a microplate reader. […]

SMILES | DC50 [nM]
CC1(C)C(=O)N(c2ccc(C#N)c(C(F)(F)F)c2F)C(=S)N1c1ccc(CCCC(=O)NCCNC(=O)COc2cccc3c2C(=O)N(C2CCC(=O)NC2=O)C3=O)nc1 (stereo not shown) [Compound A6] | > 2000
CC1(C)C(=O)N(c2ccc(C#N)c(C(F)(F)F)c2F)C(=S)N1c1ccc(-c2ccc(OCCNC(=O)COc3cccc4c3C(=O)N(C3CCC(=O)NC3=O)C4=O)cc2)cc1 (stereo not shown) [Compound A22] | 73.7
CC1(C)C(=O)N(c2ccc(C#N)c(C(F)(F)F)c2F)C(=S)N1c1ccc(-c2ccc(OCCNC(=O)COc3cccc4c3C(=O)N(C3CCC(=O)NC3=O)C4=O)cc2)nc1 (stereo not shown) [Compound A23] | 721
CC1(C)C(=O)N(c2ccc(C#N)c(C(F)(F)F)c2F)C(=S)N1c1ccc(C2CC2C(=O)NCCNC(=O)COc2cccc3c2C(=O)N(C2CCC(=O)NC2=O)C3=O)nc1 (stereo not shown) [Compound A24] | > 2000
CC1(C)C(=O)N(c2ccc(C#N)c(C(F)(F)F)c2F)C(=S)N1c1ccc(C2CC2C(=O)NCCCNC(=O)COc2cccc3c2C(=O)N(C2CCC(=O)NC2=O)C3=O)nc1 (stereo not shown) [Compound A25] | > 2000
CC1(C)C(=O)N(c2ccc(C#N)c(C(F)(F)F)c2F)C(=S)N1c1ccc(C2CC2C(=O)NCCCCNC(=O)COc2cccc3c2C(=O)N(C2CCC(=O)NC2=O)C3=O)nc1 (stereo not shown) [Compound A26] | > 2000
CC1(C)C(=O)N(c2ccc(C#N)c(C(F)(F)F)c2F)C(=S)N1c1ccc(C#CC2CCN(CCNC(=O)COc3cccc4c3C(=O)N(C3CCC(=O)NC3=O)C4=O)CC2)cc1 (stereo not shown) [Compound A27] | 34.8
CC1(C)C(=O)N(c2ccc(C#N)c(C(F)(F)F)c2F)C(=S)N1c1ccc([C@@H]2C[C@H]2C(=O)NCCCCNC(=O)COc2cccc3c2C(=O)N(C2CCC(=O)NC2=O)C3=O)nc1 (stereo partly shown) [Compound A28] | > 2000
CC1(C)C(=O)N(c2ccc(C#N)c(C(F)(F)F)c2F)C(=S)N1c1ccc(-c2ccc(C(=O)NCCNC(=O)COc3cccc4c3C(=O)N(C3CCC(=O)NC3=O)C4=O)cc2)nc1 (stereo not shown) [Compound A34] | 835
CC1(C)C(=O)N(c2ccc(C#N)c(C(F)(F)F)c2F)C(=S)N1c1ccc(-c2ccc(OCCNC(=O)COc3ccc4c(c3)C(=O)N(C3CCC(=O)NC3=O)C4=O)cc2)nc1 (stereo not shown) [Compound A38] | 58.6
CC1(C)C(=O)N(c2ccc(C#N)c(C(F)(F)F)c2F)C(=S)N1c1cnc(-c2ccc(OCCNC(=O)COc3cccc4c3C(=O)N(C3CCC(=O)NC3=O)C4=O)c(F)c2)c(F)c1 (stereo not shown) [Compound A39] | 19.4
CC1(C)C(=O)N(c2ccc(C#N)c(C(F)(F)F)c2F)C(=S)N1c1cnc(-c2ccc(OCCNC(=O)COc3ccc4c(c3)C(=O)N(C3CCC(=O)NC3=O)C4=O)c(F)c2)c(F)c1 (stereo not shown) [Compound A40] | 29.8
CC1(C)C(=O)N(c2ccc(C#N)c(C(F)(F)F)c2F)C(=S)N1c1cnc(-c2ccc(OCC(=O)NCCNc3cccc4c3C(=O)N(C3CCC(=O)NC3=O)C4=O)c(F)c2)c(F)c1 (stereo not shown) [Compound A41] | 59
CC1(C)C(=O)N(c2ccc(C#N)c(C(F)(F)F)c2F)C(=S)N1c1cnc(-c2ccc(OC3CCN(C(=O)COc4ccc5c(c4)C(=O)N(C4CCC(=O)NC4=O)C5=O)CC3)c(F)c2)c(F)c1 (stereo not shown) [Compound A42] | 122
CC1(C)C(=O)N(c2ccc(C#N)c(C(F)(F)F)c2F)C(=S)N1c1cnc(-c2ccc(OC3CCN(C(=O)COc4cccc5c4C(=O)N(C4CCC(=O)NC4=O)C5=O)CC3)c(F)c2)c(F)c1 (stereo not shown) [Compound A43] | 88.3
CC1(C)C(=O)N(c2ccc(C#N)c(C(F)(F)F)c2F)C(=S)N1c1ccc(-c2ccc(OC3CCN(C(=O)COc4cccc5c4C(=O)N(C4CCC(=O)NC4=O)C5=O)C3)cc2)nc1 (stereo not shown) [Compound A44] | > 2000
CC1(C)C(=O)N(c2ccc(C#N)c(C(F)(F)F)c2F)C(=S)N1c1ccc(-c2ccc(C(=O)N3CCN(C(=O)COc4cccc5c4C(=O)N(C4CCC(=O)NC4=O)C5=O)CC3)cc2)nc1 (stereo not shown) [Compound A45] | > 2000
Cc1ncsc1-c1ccc(CNC(=O)[C@@H]2C[C@@H](O)CN2C(=O)[C@@H](NC(=O)COc2ccc(-c3ccc(N4C(=S)N(c5ccc(C#N)c(C(F)(F)F)c5F)C(=O)C4(C)C)cn3)cc2)C(C)(C)C)cc1 [Compound A48] | > 2000
Cc1ncsc1-c1ccc(CNC(=O)[C@@H]2C[C@@H](O)CN2C(=O)[C@@H](NC(=O)CCCCCNC(=O)c2ccc(-c3ccc(N4C(=S)N(c5ccc(C#N)c(C(F)(F)F)c5F)C(=O)C4(C)C)cn3)cc2)C(C)(C)C)cc1 [Compound A53] | 149
Cc1ncsc1-c1ccc(CNC(=O)[C@@H]2C[C@@H](O)CN2C(=O)[C@@H](NC(=O)CCN2CCC(NC(=O)c3ccc(-c4ccc(N5C(=S)N(c6ccc(C#N)c(C(F)(F)F)c6F)C(=O)C5(C)C)cn4)cc3)C2)C(C)(C)C)cc1 (stereo partly shown) [Compound A56] | 704
Cc1ncsc1-c1ccc(CNC(=O)[C@@H]2C[C@@H](O)CN2C(=O)[C@@H](NC(=O)CCN2CCN(C(=O)c3ccc(-c4ccc(N5C(=S)N(c6ccc(C#N)c(C(F)(F)F)c6F)C(=O)C5(C)C)cn4)cc3)CC2)C(C)(C)C)cc1 [Compound A58] | 133
Cc1ncsc1-c1ccc(CNC(=O)[C@@H]2C[C@@H](O)CN2C(=O)[C@@H](NC(=O)[C@H]2CC[C@H](CNC(=O)c3ccc(-c4ccc(N5C(=S)N(c6ccc(C#N)c(C(F)(F)F)c6F)C(=O)C5(C)C)cn4)cc3)CC2)C(C)(C)C)cc1 [Compound A59] | 48.6
Cc1ncsc1-c1ccc(CNC(=O)[C@@H]2C[C@@H](O)CN2C(=O)[C@@H](NC(=O)c2ccc(CNC(=O)c3ccc(-c4ccc(N5C(=S)N(c6ccc(C#N)c(C(F)(F)F)c6F)C(=O)C5(C)C)cn4)cc3)cc2)C(C)(C)C)cc1 [Compound A60] | 82.9
Cc1ncsc1-c1ccc(CNC(=O)[C@@H]2C[C@@H](O)CN2C(=O)[C@@H](NC(=O)C2CCN(C3CCN(C(=O)c4ccc(-c5ccc(N6C(=S)N(c7ccc(C#N)c(C(F)(F)F)c7F)C(=O)C6(C)C)cn5)cc4)CC3)CC2)C(C)(C)C)cc1 [Compound A61] | 268
Cc1ncsc1-c1ccc(CNC(=O)[C@@H]2C[C@@H](O)CN2C(=O)[C@@H](NC(=O)CCCN2CC(Oc3ccc(-c4ccc(N5C(=S)N(c6ccc(C#N)c(C(F)(F)F)c6F)C(=O)C5(C)C)cn4)cc3)C2)C(C)(C)C)cc1 [Compound A64] | 233
